Measured values from patent US9409905B2, “Antibacterial compounds and methods for use” (PTC THERAPEUTICS, INC., priority 2011, dated 2016).
Converted amounts (≈) assume the structure as drawn.

Legend:
E. coli LZ3111 = experiment: Antibacterial activity, MIC, quinolone resistant strain (Table 2); type: cell-based; conditions: Escherichia coli, LZ3111, read-out: MIC LZ3111
Procedure, shortened: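 Strain carries mutations conferring high-level quinolone resistance; tested by microbroth dilution, MIC recorded in μg/mL as lowest concentration preventing visible growth.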

E. coli 25922 = experiment: Antibacterial activity, microbroth dilution MIC (Table 1); type: cell-based, Escherichia coli; conditions: Escherichia coli; microbroth dilution; control Gram-negative E. coli 25922 strain; read-out: MIC, 25922
Procedure, shortened: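 Read-out: visual absence of growth. The lowest concentration meeting this gives the MIC, expressed in μg/mL, with microbroth dilution as the method.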

K. pneumoniae MXX1232 = experiment: Antibacterial activity, MIC, resistant strain (Table 4); type: cell-based; conditions: Klebsiella pneumoniae, MXX1232; resistant K. pneumoniae MMX1232, multi-drug resistant clinical isolate; read-out: MIC, MMX1232
Procedure, shortened: (§1)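 MIC in μg/mL by microbroth dilution, scored as the lowest level that suppresses visible growth.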

A. baumannii MXX2240 = experiment: as above; type: cell-based; conditions: Acinetobacter baumannii, MXX2240; resistant A. baumannii MMX2240, multi-drug resistant clinical isolate; read-out: MIC, MMX2240
Procedure, shortened: as §1

[1] = tested on: Acinetobacter baumannii (A. baumannii) BAA747; experiment: Antibacterial activity, MIC (Table 4); type: cell-based; conditions: A. baumannii BAA747, read-out: MIC, BAA747
Procedure, shortened: as §1

[2] = tested on: Klebsiella pneumoniae (K. pneumoniae) 35657; experiment: Antibacterial activity, MIC (Table 4); type: cell-based; conditions: K. pneumoniae 35657, read-out: MIC, 35657
Procedure, shortened: as §1

[3] = tested on: Pseudomonas aeruginosa (P. aeruginosa) 27853; experiment: Antibacterial activity, MIC (Table 5); type: cell-based; conditions: P. aeruginosa 27853, read-out: MIC, 27853
Procedure, shortened: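 Compounds are serially diluted in broth and inoculated with the organism. Growth is then inspected macroscopically, and the lowest concentration showing none is taken as the MIC (μg/mL).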

[4] = tested on: Escherichia coli (E. coli) BAS849; experiment: Antibacterial activity, microbroth dilution MIC (Table 1); type: cell-based; conditions: microbroth dilution, super sensitive Gram-negative E. coli BAS849, read-out: MIC, BAS849
Procedure, shortened: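 Potency is reported as minimum inhibitory concentration in μg/mL, determined by broth microdilution as the lowest level of compound that stops growth visible to the eye.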

[5] = tested on: Staphylococcus aureus (S. aureus) 29213; experiment: as above; type: cell-based; conditions: microbroth dilution, Gram-positive S. aureus 29213, read-out: MIC, 29213
Procedure, shortened: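 MIC (μg/mL) is taken as the lowest concentration with no macroscopically visible growth. Strains tested by microbroth dilution: Gram-positive S. aureus 29213, control Gram-negative E. coli 25922, and super-sensitive E. coli BAS849.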

SMILES | MIC (E. coli LZ3111) [mg/L] | MIC (E. coli 25922) [mg/L] | MIC (K. pneumoniae MXX1232) [mg/L] | MIC (A. baumannii MXX2240) [mg/L] | MIC [1] [mg/L] | MIC [2] [mg/L] | MIC [3] [mg/L] | MIC [4] [mg/L] | MIC [5] [mg/L]
COc1c(-c2ccc3c(ccn3C)c2)[nH]c(=O)c(C(=O)O)c1O [Cpd 377, 4-hydroxy-5-methoxy-6-(1-methyl-1H-indol-5-yl)-2-oxo-1,2-dihydropyridine-3-carboxylic acid] | 3.5 to 12.5 (≈ 11.1 to 39.8 µM) | 12.5 to 150 (≈ 39.8 to 477 µM) | 12.5 to 150 (≈ 39.8 to 477 µM) | 3.5 to 12.5 (≈ 11.1 to 39.8 µM) | 12.5 to 150 (≈ 39.8 to 477 µM) | 12.5 to 150 (≈ 39.8 to 477 µM) | 12.5 to 150 (≈ 39.8 to 477 µM) | < 1 | 12.5 to 150 (≈ 39.8 to 477 µM)
CCOc1c(-c2ccc3c(ccn3C)c2)[nH]c(=O)c(C(=O)O)c1O [Cpd 378, 4-hydroxy-5-ethoxy-6-(1-methyl-1H-indol-5-yl)-2-oxo-1,2-dihydropyridine-3-carboxylic acid] | 3.5 to 12.5 (≈ 10.7 to 38.1 µM) | 12.5 to 150 (≈ 38.1 to 457 µM) | 12.5 to 150 (≈ 38.1 to 457 µM) | 3.5 to 12.5 (≈ 10.7 to 38.1 µM) | 12.5 to 150 (≈ 38.1 to 457 µM) | 12.5 to 150 (≈ 38.1 to 457 µM) | 12.5 to 150 (≈ 38.1 to 457 µM) | 3.5 to 12.5 (≈ 10.7 to 38.1 µM) | 12.5 to 150 (≈ 38.1 to 457 µM)
CCc1c(-c2cc3ccc(OC)cc3[nH]2)[nH]c(=O)c(C(=O)O)c1O [Cpd 379, 5-ethyl-4-hydroxy-6-(6-methoxy-1H-indol-2-yl)-2-oxo-1,2-dihydropyridine-3-carboxylic acid] | 12.5 to 150 (≈ 38.1 to 457 µM) | 12.5 to 150 (≈ 38.1 to 457 µM) | 12.5 to 150 (≈ 38.1 to 457 µM) | 12.5 to 150 (≈ 38.1 to 457 µM) | 12.5 to 150 (≈ 38.1 to 457 µM) | 12.5 to 150 (≈ 38.1 to 457 µM) | 12.5 to 150 (≈ 38.1 to 457 µM) | 3.5 to 12.5 (≈ 10.7 to 38.1 µM) | 12.5 to 150 (≈ 38.1 to 457 µM)
CCc1c(-c2cc3cc(F)ccc3[nH]2)[nH]c(=O)c(C(=O)O)c1O [Cpd 380, 5-ethyl-6-(5-fluoro-1H-indol-2-yl)-4-hydroxy-2-oxo-1,2-dihydropyridine-3-carboxylic acid] | 12.5 to 150 (≈ 39.5 to 474 µM) | 12.5 to 150 (≈ 39.5 to 474 µM) | 12.5 to 150 (≈ 39.5 to 474 µM) | 12.5 to 150 (≈ 39.5 to 474 µM) | 12.5 to 150 (≈ 39.5 to 474 µM) | 12.5 to 150 (≈ 39.5 to 474 µM) | 12.5 to 150 (≈ 39.5 to 474 µM) | 3.5 to 12.5 (≈ 11.1 to 39.5 µM) | 12.5 to 150 (≈ 39.5 to 474 µM)
CCc1ccc2[nH]c(-c3[nH]c(=O)c(C(=O)O)c(O)c3CC)cc2c1 [Cpd 381, 5-ethyl-6-(5-ethyl-1H-indol-2-yl)-4-hydroxy-2-oxo-1,2-dihydropyridine-3-carboxylic acid] | 12.5 to 150 (≈ 38.3 to 460 µM) | 12.5 to 150 (≈ 38.3 to 460 µM) | 12.5 to 150 (≈ 38.3 to 460 µM) | 12.5 to 150 (≈ 38.3 to 460 µM) | 12.5 to 150 (≈ 38.3 to 460 µM) | 12.5 to 150 (≈ 38.3 to 460 µM) | 12.5 to 150 (≈ 38.3 to 460 µM) | < 1 | 3.5 to 12.5 (≈ 10.7 to 38.3 µM)
CCc1ccc2cc(-c3[nH]c(=O)c(C(=O)O)c(O)c3CC)[nH]c2c1 [Cpd 382, 5-ethyl-6-(6-ethyl-1H-indol-2-yl)-4-hydroxy-2-oxo-1,2-dihydropyridine-3-carboxylic acid] | 12.5 to 150 (≈ 38.3 to 460 µM) | 12.5 to 150 (≈ 38.3 to 460 µM) | 12.5 to 150 (≈ 38.3 to 460 µM) | 12.5 to 150 (≈ 38.3 to 460 µM) | 12.5 to 150 (≈ 38.3 to 460 µM) | 12.5 to 150 (≈ 38.3 to 460 µM) | 12.5 to 150 (≈ 38.3 to 460 µM) | < 1 | 3.5 to 12.5 (≈ 10.7 to 38.3 µM)
CCCc1ccc2[nH]c(-c3[nH]c(=O)c(C(=O)O)c(O)c3CC)cc2c1 [Cpd 383, 5-ethyl-4-hydroxy-2-oxo-6-(5-propyl-1H-indol-2-yl)-1,2-dihydropyridine-3-carboxylic acid] | 12.5 to 150 (≈ 36.7 to 441 µM) | 12.5 to 150 (≈ 36.7 to 441 µM) | 12.5 to 150 (≈ 36.7 to 441 µM) | 12.5 to 150 (≈ 36.7 to 441 µM) | 12.5 to 150 (≈ 36.7 to 441 µM) | 12.5 to 150 (≈ 36.7 to 441 µM) | 12.5 to 150 (≈ 36.7 to 441 µM) | < 1 | 3.5 to 12.5 (≈ 10.3 to 36.7 µM)
CCCc1ccc2cc(-c3[nH]c(=O)c(C(=O)O)c(O)c3CC)[nH]c2c1 [Cpd 384, 5-ethyl-4-hydroxy-2-oxo-6-(6-propyl-1H-indol-2-yl)-1,2-dihydropyridine-3-carboxylic acid] | 12.5 to 150 (≈ 36.7 to 441 µM) | 12.5 to 150 (≈ 36.7 to 441 µM) | 12.5 to 150 (≈ 36.7 to 441 µM) | 12.5 to 150 (≈ 36.7 to 441 µM) | 12.5 to 150 (≈ 36.7 to 441 µM) | 12.5 to 150 (≈ 36.7 to 441 µM) | 12.5 to 150 (≈ 36.7 to 441 µM) | < 1 | 12.5 to 150 (≈ 36.7 to 441 µM)
